From patent publication US20220073642A1, “METHODS OF USING SURUFATINIB IN TREATING ADVANCED PANCREATIC AND EXTRA-PANCREATIC NEUROENDOCRINE TUMORS” (HUTCHISON MEDIPHARMA LIMITED, priority 2020, published 2022)
Where “and” joins values, the source holds several entries; their conditions need not be identical. Identical values can stand only once.

How the values were obtained:
[1] = tested on: NETs; test: Phase I dose escalation clinical study, extension stage (NCT02133157); format: in vivo, human; settings: 21 efficacy evaluable patients with NETs
Excerpt: This multi-center, open-label, dose-escalation phase I study investigated the safety, pharmacokinetic characteristics, and preliminary anti-tumor activity of surufatinib in patients with advanced solid tumors. The primary objective was to determine the maximum tolerated dose (MTD), recommended phase II trial dose (RPTD), and the safety profile of Surufatinib when administered to patients with advanced malignant solid tumors. A secondary objective was to evaluate the pharmacokinetic profile of Surufatinib, and exploratory objectives included evaluating the ORR among patients given Surufatinib therapy and determining whether biomarkers for angiogenesis might reflect any clinical efficacy shown by Surufatinib. A modified Fibonacci 3+3 construct was used to design this dose escalation study and determine the MTD of Surufatinib.
In addition, similar efficacy trends have also been shown in the Phase Ib/II study of patients with NETs (Jianming Xu et al. Clin Cancer Res. 25(12):3486-3494). […] Therefore, further clinical investigation of Surufatinib is valuable.

[2] = tested on: advanced pancreatic NETs; test: phase 1 study of surufatinib in patients from the United States; format: in vivo, human
Method: Although this trial was conducted fully in a Chinese patient population, the results appear to be applicable to Western patients. Encouraging results have been reported from an ongoing phase 1 study of surufatinib in patients from the United States with heavily treated advanced pancreatic NETs (4 median prior lines of therapy), with an objective response rate of 25.0% (4/16: 3 confirmed partial response and 1 unconfirmed partial response). The safety profile observed in this Western patient population was similar to those observed in the SANET-p trial, as well as in other clinical studies of surufatinib in NETs patients.
As compared with other trials involving patients with extra-pancreatic NETs, the population enrolled in this study was heterogenous. In addition, only Chinese patients were enrolled in this study, which may limit the extrapolation of the results to other populations: however, historically no ethnic differences in the efficacy of antiangiogenic agents for NETs have been reported.

[3] = tested on: advanced extra-pancreatic neuroendocrine tumors; test: SANET-ep Phase III study, efficacy (RECIST 1.1); format: in vivo, human
Excerpt: (§1) This study is a randomized, double-blind, placebo-controlled, multi-center Phase III study to assess the efficacy and safety of Surufatinib in treating advanced extra-pancreatic neuroendocrine tumors.
The targeted population are progressive, locally advanced or distant metastatic extra-pancreatic NETs (including, but not limited to: lungs, thymus gland and gastrointestinal origins like stomach, duodenum, liver, jejunum, ileum, colon, caecum, vermiform appendix and rectum, and unknown origin) patients with no possibility of radical resection of tumor, and of pathologically with low or intermediate grade (G1 or G2). For Gastrointestinal neuroendocrine tumors (GI-NETs), G1 is defined as <2 mitoses/10 high-power field
(§2) [HPF] and/or <3% Ki-67 index; G2 is defined as 2-20/10 HPF and/or 3-20% Ki-67 index; for NETs originating from the lung and thymus gland, G1 is defined as <2 mitoses/10 HPF and no necrosis; G2 is defined as 2-10/10 HPF and/or foci of necrosis. NETs from origin other than GI-NET, lung and thymus, or from unknown origins should be graded according to the GI-NET grading criteria. If the mitotic ratio and Ki-67 index correspond to different grade, the higher grade should be used to assign classification. All patients must provide tumor samples for central pathology review to check as of whether the diagnostics and grade score comply with inclusion criteria. Patients must have radiological documentation of progression of disease within 12 months prior to randomization. Patients must have previously progressed no more than two types of systemic anti-tumor therapy, including long-acting somatostatin analogs (SSAs), interferon, PRRT (peptide receptor radionuclide therapy), mammalian target of rapamycin (mTOR) inhibitors or chemotherapy (all chemotherapies are deemed as a single therapy regardless of drug or time); patients who are unable or unwilling to receive such treatments are also eligible if all other criteria are met.
Approximately 273 patients will be randomly assigned (in 2:1 ratio) to the following treatment groups based on interactive web response system IWRS:
(§3) Surufatinib, 300 mg, once daily (QD), orally
(§4) Continuous administration (every 4 weeks as a treatment cycle).
(§5) According to the randomized result, the patients will receive continuous oral treatment, every 4-week treatment cycle until progression of disease occurs, intolerable toxicity or other protocol-specified end-of-treatment criteria is met.
(§6) In accordance with RECIST 1.1, the tumor should be assessed every 8 weeks (±3 days) within the first year and every 12 weeks (±3 days) after the patient has been treated for more than one year.
(§7) 1) Primary therapeutic endpoint: PFS (according to RECIST 1.1 criteria)
(§8) 2) Secondary therapeutic endpoint: Objective Response Rate of the tumor (ORR), Disease Control Rate (DCR), Duration of Response (DoR), Time to Response (TTR) and Overall Survival (OS) (according to RECIST 1.1 criteria)

[4] = SANET-p Phase III study, safety and exposure (NCI CTCAE v4.03); settings: N = 113
Excerpt: SANET-p (NCT02589821) is a randomized, double-blind, placebo-controlled Phase III study evaluating the efficacy and safety of surufatinib compared to placebo in patients with progressive, advanced (unresectable local progression or distant metastasis), well-differentiated pancreatic neuroendocrine tumors.
Continuous administration (every 4 weeks as a treatment cycle). Surufatinib can be taken with or without food and should be taken as a single administration per day. It is recommended to take the drug at the same time every day. If the patient vomits after dosing surufatinib, there is no need to make up.
During the treatment, physician should closely monitor the patients and adjust dosage according to the safety and tolerability of individual patients, including dose interruption, dose reduction or permanently discontinue treatment. The dose adjustment should follow the guidance of interruption first and then dose reduction.

[5] = SANET-ep Phase III study, safety and exposure (NCI CTCAE v4.03); format: in vivo, human; settings: N = 129
Method: as §1, §3, §4

[6] = Solubility of surufatinib; format: physicochemical
Excerpt: As used here, the term “surufatinib” (formerly named sulfatinib”)refers to N-(2-(dimethylamino)ethyl)-1-(3-(4-(2-methyl-1H-indol-5-yloxy)pyrimidin-2-ylamino)phenyl)methanesulfonamide or N-(2-(dimethylamino)ethyl)-1-(3-(4-(2-methyl-1H-indol-5-yloxy)pyrimidin-2-ylamino)phenyl)methanesulfonamide. Surufatinib is a small-molecule kinase inhibitor which mainly acts on VEGFRs-1, 2, 3, the FGFR1 and CSF1R. Surufatinib is a study drug formulated as an odorless, white or off-white powder in capsules, with strengths of 50 mg and 200 mg. […] Herein, “surufatinib” may be referred to as “drug,” “active agent,” “a therapeutically active agent,” or “API.”

[7] = tested on: advanced, well-differentiated pancreatic neuroendocrine tumors; test: SANET-p Phase III study, efficacy (RECIST 1.1); format: in vivo, human; settings: for Odds ratio, Disease control rate / Odds ratio, Objective response rate: vs placebo
Excerpt: as §2, with “The targeted population are progressive, locally advanced or distant metastatic, low- or intermediate grade (G1 or G2) pancreatic NETs patients. G1 is defined as <2 mitoses/10 high-power field [HPF]” for “[HPF]”, “index.” for “index; for NETs originating from the lung and thymus gland, G1 is defined as <2 mitoses/10 HPF and no necrosis; G2 is defined as 2-10/10 HPF and/or foci of necrosis. NETs from origin other than GI-NET, lung and thymus, or from unknown origins should be graded according to the GI-NET grading criteria.”
Approximately 195 patients will be randomly assigned (in 2:1 ratio) to the following treatment groups based on interactive web response system IWRS:
as §3, §4, §5, §6, §7, §8

[8] = treatment-related AE, safety set
[9] = treatment-related AE, safety population
[10] = ITT set, 95% CI, listed as surufatinib

In the case of Cc1cc2cc(Oc3ccnc(Nc4cccc(CS(=O)(=O)NCCN(C)C)c4)n3)ccc2[nH]1 [Surufatinib, N-(2-(dimethylamino)ethyl)-1-(3-((4-((2-methyl-1H-indol-5-yl)oxy)pyrimidin-2-yl)amino)phenyl)-methanesulfonamide], the DCR [1] is reported as 85.7%, the ORR [1] is reported as 38.1% and the “not evaluable for response” value [1] is reported as 3 patients. For the same molecule, the “patients achieved PR” value [1] was 8 patients, the “patients achieved SD” value [1] was 10 patients and the objective response rate ([2]; advanced pancreatic NETs, 2/15) was 13.3%. For the same molecule, the Disease control rate ([2]; advanced pancreatic NETs, 11/15) was 73.3%, the objective response rate ([2]; heavily treated advanced pancreatic NETs, 4/16 (3 confirmed, 1 unconfirmed partial response)) was 25.0% and the Duration of response ([3]; BIIRC-assessed) was 5.6 months. The Time to response ([3]; BIIRC-assessed) was 2.9 months, the Disease control rate ([3]; BIIRC-assessed, N = 126) was 77.8% and the objective response rate ([3]; BIIRC-assessed, N = 126) was 7.9%. The “Best overall response: Partial response” value ([3]; Investigator-assessed, N = 126) was 13 n, the Disease control rate ([3]; Investigator-assessed, N = 126) was 86.5% and the objective response rate ([3]; Investigator-assessed, N = 126) was 10.3%. For the same molecule, the “median progression-free survival as assessed by the investigators” value ([3]; N = 129, 300 mg QD orally) was 9.2 months, the “progression-free survival HR vs placebo, BIIRC-assessment” value ([3]; in vivo) was 0.66 and the “progression-free survival HR vs placebo, investigators” value ([3]; in vivo) was 0.33. The “progression-free survival HR vs placebo, post-hoc adjudicated BIIRC results” value ([3]; in vivo) was 0.57, the Duration of response ([3]; investigator-assessed) was 5.6 months and the Time to response ([3]; investigator-assessed) was 3.7 months. For the same molecule, the “reduction of the risk of disease progression or death compared with placebo” value ([3]; investigators) was 67%, the “HR for median progression-free survival, NETs of unknown or uncommon tumor origins” value ([3]; post-hoc subgroup analysis) was 0.50 and the “median progression-free survival, BIIRC-assessment” value ([3]; sensitivity analysis) was 7.4 months. For the same molecule, the “median progression-free survival, patients previously treated with everolimus” value ([3]; subgroup, 7.8% of patients) was 7.4 months, the “on-treatment deaths attributed to adverse events” value [4] was “Two” and the “Arthralgia, ≥Grade 3” value [4, 8] was 0 n. For the same molecule, the “Back pain, ≥Grade 3” value [4, 8] was 0 n, the “Bilirubin conjugated increased, ≥Grade 3” value [4, 8] was 0 n and the “Blood creatinine increased, ≥Grade 3” value [4, 8] was 0 n. For the same molecule, the “Blood lactate dehydrogenase increased, ≥Grade 3” value [4, 8] was 0 n, the “Blood thyroid stimulating hormone increased, ≥Grade 3” value [4, 8] was 0 n and the “Decreased appetite, ≥Grade 3” value [4, 8] was 0 n. For the same molecule, the “Dizziness, ≥Grade 3” value [4, 8] was 0 n, the “Fatigue, ≥Grade 3” value [4, 8] was 0 n and the “Haemoglobin increased, ≥Grade 3” value [4, 8] was 0 n. For the same molecule, the “Headache, ≥Grade 3” value [4, 8] was 0 n, the “Hyperbilirubinaemia, ≥Grade 3” value [4, 8] was 0 n and the “Hypercholesterolaemia, ≥Grade 3” value [4, 8] was 0 n. The “Hypoalbuminaemia, ≥Grade 3” value [4, 8] was 0 n, the “Hypothyroidism, ≥Grade 3” value [4, 8] was 0 n and the “Nausea, ≥Grade 3” value [4, 8] was 0 n. The “Occult blood positive, ≥Grade 3” value [4, 8] was 0 n, the “Discontinuation due to proteinuria” value [5] was 1.6% and the “Discontinuation due to urine protein present” value [5] was 2.3%. The “hypertension resulting in dose interruption or reduction” value [5] was 15.5%, the “proteinuria resulting in dose interruption or reduction” value [5] was 29.5% and the “treatment discontinuation for adverse events” value [5] was 14.7%. The “Treatment-related adverse event, any grade” value ([5]; safety population) was 97.7%, the “ALT increased, ≥Grade 3” value [5, 9] was 3.1% and the “AST increased, ≥Grade 3” value [5, 9] was 3.9%. For the same molecule, the “Anemia, ≥Grade 3” value [5, 9] was 4.7%, the “Hyperbilirubinemia, ≥Grade 3” value [5, 9] was 3.9% and the “Hypertension, ≥Grade 3” value [5, 9] was 36.4%. For the same molecule, the “Protein urine present, ≥Grade 3” value [5, 9] was 3.9%, the “Proteinuria, ≥Grade 3” value [5, 9] was 19.4% and the “solubility in methyl alcohol or ethyl alcohol” value ([6]; methyl alcohol or ethyl alcohol) was “slightly soluble”. The solubility in water ([6]; water) was “insoluble”, the Duration of response ([7]; BIIRC-assessed) was 15.2 months and the Time to response ([7]; BIIRC-assessed) was 3.9 months. For the same molecule, the “Best overall response: Non-complete response, non-progressive disease” value ([7]; BIIRC-assessed, N = 104) was 0 n, the “Odds ratio, Disease control rate” value ([7]; BIIRC-assessed) was 2.5 and the “Odds ratio, Objective response rate” value ([7]; BIIRC-assessed) was 8.8. For the same molecule, the “PFS (BIIRC assessment), median” value ([7]; ITT set, N = 113) was 13.9 month, the “PFS (Investigator's assessment), median” value ([7]; ITT set, N = 113, 300 mg QD orally) was 10.9 month and the “PFS (BIIRC assessment), HR (Surufatinib/Placebo)” value ([7]; ITT set, 95% CI) was 0.339 (0.209, 0.549). The “PFS (Investigator's assessment), HR (Surufatinib/Placebo)” value ([7]; ITT set, 95% CI) was 0.491 (0.319, 0.755), the “PFS (BIIRC assessment), HR (Surufatinib/Placebo)” value [7, 10] was 0.34 and the “PFS (Investigator's assessment), HR (Surufatinib/Placebo)” value [7, 10] was 0.49. The “DoR, median” value ([7]; Table 4, N = 15) was 15.2 month, the “TTR, median” value ([7]; Table 4, N = 15) was 3.9 month and the “Disease control rate, BIIRC-assessed” value ([7]; interim ITT set, N = 104) was 84.6%. For the same molecule, the “Disease control rate, investigator-assessed” value ([7]; interim ITT set, N = 104) was 80.8%, the “Objective response rate, BIIRC-assessed” value ([7]; interim ITT set, N = 104) was 14.4% and the “Objective response rate, investigator-assessed” value ([7]; interim ITT set, N = 104) was 19.2%. For the same molecule, the “median PFS longer than in the placebo cohort” value ([7]; investigator assessment) was 7.2 months, the “reduction of the risk of disease progression/death vs placebo” value ([7]; investigator assessment) was 50.9% and 51% and the “reduction of the risk of disease progression/death vs placebo” value ([7]; investigator assessment, listed as surufatinib) was 51%. For the same molecule, the Duration of response ([7]; investigator-assessed) was 7.4 months, the Time to response ([7]; investigator-assessed) was 3.8 months and the “Best overall response: Partial response” value ([7]; investigator-assessed, N = 104) was 20 n. The “Odds ratio, Disease control rate” value ([7]; investigator-assessed) was 2.1, the “Odds ratio, Objective response rate” value ([7]; investigator-assessed) was 12.4 and the “DCR, OR (odds ratio) vs placebo” value ([7]; investigator, 95% CI) was 2.1 (0.9, 4.8). For the same molecule, the “ORR, OR (odds ratio) vs placebo” value ([7]; investigator, 95% CI) was 12.4 (1.8, 522.8).
